Values joined by “and” are separate entries in the source; they are usually repeats but may differ in a detail not shown here. Identical values can stand only once. Like-named read-outs stand apart in the source and are kept apart here. One block for each molecule: values may come before it.
Key:
[1] = Quantification of pancreatic uptake by one-tissue compartment model; format: in vivo, piglets; conditions: pancreas; for Kp: male, Swedish landrace, pig, intravenous; for K1, average / k2, average / K1 / k2: defluorination-corrected plasma input
Text: A one-tissue compartment model was used to estimate the compound parameter VT as well as the tissue specific rate constants K1 to k2 in the pancreas. The Cp was used as an input function, corrected for tracer metabolism by defluorination parameter kdefluorination determined from cortical bone uptake. The kinetic parameters were estimated by the PMOD modeling module PKIN.

VMAT2 [2] = experiment: In vitro homogenate saturation binding (human endocrine and exocrine pancreatic tissue homogenates); conditions: human islet vs exocrine homogenates
Description: Endocrine (n = 4, 80% to 85% islets) or exocrine (n = 4) tissue preparations were isolated from human pancreata and homogenized in 50 mM tris(hydroxymethyl)aminomethane [TRIS] by a Polytron PT3000 homogenator (Kinematica AG, Littau, Switzerland). The tissue homogenates (0.5 to 6 mg/mL) were incubated in 1 mL of 50 mM TRIS with different concentrations of tracer around an expected dissociation constant Kd of 3 nM. The non-displaceable binding was determined by addition of 10 to 20 μM tetrabenazine (BIOTREND Chemikalien GmbH, Cologne, Germany).
All samples were incubated at RT for 60 min to reach an equilibrium and then moved onto a 1.2 μm Whatman filter (Brandel, Gaithersburg, MD, USA; pretreated with 0.05% polyethylenimine for > 1 h) by a C-48 cell harvester (Brandel, Gaithersburg, MD, USA). The filter components associated to each group were pooled and measured in a well counter (Uppsala Imanet AB, GE Healthcare, Uppsala, Sweden). Tissue samples and references were prepared in triplicates, and filter binding controls, in duplicates.
Tissue protein content (in milligram protein per sample) was assessed by a Bio-Rad Protein Assay (Bio-Rad, Hercules, CA, USA), and absorbance was measured with an EL808 microplate reader (BioTek, Winooski, VT, USA). The BP, defined as the ratio between the receptor density [Bmax] and dissociation constant [Kd], was determined by nonlinear regression.

[3] = Estimation of tracer defluorination by kinetic modeling of cortical bone uptake; format: in vivo, piglets; conditions: for half-life: male, Swedish landrace, pig, intravenous; for half-life / kdefluorination, average / kdefluorination: plasma; for half-life / t1/2 (defluorination) / kdefluorination, average / kdefluorination: piglets
Text: Since the studies on [^18F]FE-DTBZ had been performed previously without metabolite correction analysis, we decided to quantify the defluorination retroactively by kinetic modeling of the cortical bone uptake. When modeling the PK/PD of a PET tracer, we generally study the relationship between three different functions (Equation 1) which we can express in a vector form; the input function [Cinput], the transfer function [HTR], and the output function [Ctissue] were defined as follows: […]
The gradual accumulation of radioactivity in the cortical bone tissue starting around 5 min after administration was assumed to consist entirely of [^18F]F^- uptake. It is difficult to delineate the cortical bone structures in the spinal column due to its relative small thickness even if isocontour thresholding is used. Partial volume effects [PVEs] will still yield kinetics containing contributions from both the cortical bone and bone marrow. […] To reduce the contribution from non-cortical sources, VOIs over the bone marrow were drawn, and the associated kinetics was subtracted from the cortical isocontour VOIs. The resulting kinetics after this operation was assessed to describe [^18F]F^- PK/PD in the cortical bone tissue and used as the output curve Ctissue for the quantification of tracer defluorination.
The Cinput of [^18F]F^- is in this specific case not created by an instantaneous bolus, but rather from a gradual reaction where [^18F]FE-DTBZ or [^18F]FE-DTBZ-d4 is the substrate and [^18F]F^- is the product. The rate of defluorination can then be expressed in a single parameter kdefluorination if we assume that the reaction is concentration-dependent and unchanging over time (or during the time frame investigated here). Cin is then uniquely determined from the arterial blood plasma curve [Cp] and kdefluorination (Equation 3): […]
The defluorination rate constant in plasma can then be determined by minimizing Equation 4: […]
All optimization was performed using MatLab 7.8.0 (MathWorks, Inc., Natick, MA, USA).

[4] = Radiochemical stability of formulated product (analytical HPLC); format: physicochemical; conditions: for up to 5 h
Description: The radiochemical purity, identity, and stability of [^18F]FE-DTBZ-d4 were determined by analytical HPLC using a reverse-phase μBondapak column (C18, 3.9 Ø × 300 mm, 10 μm, Waters Corporation) with mobile phase CH3CN/10 mM H3PO4 (15:85) and a flow rate of 3 mL/min. The effluent was monitored with an UV absorbance detector (λ = 214 nm) coupled with a radioactive detector (β-flow, Beckman Coulter, Inc., Fullerton, CA, USA). The identity of [^18F]FE-DTBZ-d4 was confirmed by co-injection with the authentic nonradioactive FE-DTBZ-d4.

[5] = PET/CT biodistribution in piglets; format: in vivo
Description: Male Swedish landrace piglets (n = 4, 15 to 17 kg, 11 to 14 weeks old) were anesthetized by Zoletil forte (Virbac, Carros Cedex, France). The animals were intubated and placed on a ventilator, and the anesthesia was maintained by 2.5% sevofluran. Normoglycemia was confirmed by determining blood glucose content (plasma glucose concentration 4.4 to 7.6 mM). The animal experiments were approved by the local ethics committee for animal research and performed in accordance with local institutional and Swedish national rules and regulations.
The PET/CT studies were performed using a Discovery ST scanner (General Electric, Milwaukee, WI, USA). All scans were acquired in 2D mode and reconstructed by OSEM iterative algorithm. Four piglets were administered 3.4 to 16.3 MBq/kg [^18F]FE-DTBZ-d4 as an intravenous [i.v.] bolus, and the biodistribution as well as the kinetics of the tracer in the abdomen was studied with a dynamic sequence over 90 min (the head first, prone, 4 frames × 30 s, 3 × 1 min, 5 × 3 min and 14 × 5 min). Arterial blood samples were acquired during the first 90 min, and both the plasma- and whole blood volume-corrected tracer contents were measured using the well counter. A whole-body PET/CT examination was performed 100 to 120 min post-administration.
The data in this study was compared to previously published PK/PD porcine data on non-deuterated [^18F]-FE-DTBZ. For details on the methodologies used in this study, see Eriksson et al..
PET and CT images were analyzed by PMOD (PMOD Technologies Ltd., Zürich, Switzerland). Values are given as means ± standard error of the mean [SEM] unless otherwise stated, and statistics are based on Student's t test.

[6] = design: method as in PMID 20346875; conditions: piglet model, PET/CT 90 min after tracer administration; cited from earlier work
VMAT2 [7] = target: T1, VMAT2 (Homo sapiens, UniProt Q05940); design: method as in PMID 20346875; conditions: human islet homogenate, described previously; cited from earlier work
T1 construct: tissue preparations were isolated from human pancreata and homogenized; from tissue; host or cells: human pancreas: endocrine (80% to 85% islets) and exocrine tissue homogenates

VMAT2 [8] = test system: VMAT2; design: method as in PMID 20346875; conditions: cited from earlier work
[9] = Description: Arterial blood and plasma samples were measured using the well-counter. The animals were positioned with a field of view as in the [^18F]FE-DTBZ-d4 dynamic scan.
Tissue volumes of interest [VOIs] and regions of interest [ROIs] were delineated on CT images or partially summed PET images. The kinetic uptake in the cortical bone tissue for all three tracers was assessed by generating isocontour VOIs over the lumbar vertrebral bodies in CT images.
The HTR is given in Equation 2, where φ1, φ2, θ1, and θ2 are macro-parameters determined by the rate constants K1, k2, k3, and k4 [18]. VT and VS denote the total and specific binding distribution volumes, respectively:
The [^18F]F^- HTR in the cortical bone was determined by the kinetic modeling module PKIN for PMOD.

[10] = average, read-out: t1/2 (defluorination), average
[11] = read-out: Half-life stability against defluorination
[12] = individual experiments, [^18F]FE-DTBZ from retrospective analysis of earlier data
[13] = mean ± SEM as given in text/footnote
[14] = cortical spinal bone, average of 3 pigs
[15] = cortical spinal bone, individual pigs
[16] = cortical spinal bone, mean ± SEM as given in text

T1 sequence (Q05940 whole entry): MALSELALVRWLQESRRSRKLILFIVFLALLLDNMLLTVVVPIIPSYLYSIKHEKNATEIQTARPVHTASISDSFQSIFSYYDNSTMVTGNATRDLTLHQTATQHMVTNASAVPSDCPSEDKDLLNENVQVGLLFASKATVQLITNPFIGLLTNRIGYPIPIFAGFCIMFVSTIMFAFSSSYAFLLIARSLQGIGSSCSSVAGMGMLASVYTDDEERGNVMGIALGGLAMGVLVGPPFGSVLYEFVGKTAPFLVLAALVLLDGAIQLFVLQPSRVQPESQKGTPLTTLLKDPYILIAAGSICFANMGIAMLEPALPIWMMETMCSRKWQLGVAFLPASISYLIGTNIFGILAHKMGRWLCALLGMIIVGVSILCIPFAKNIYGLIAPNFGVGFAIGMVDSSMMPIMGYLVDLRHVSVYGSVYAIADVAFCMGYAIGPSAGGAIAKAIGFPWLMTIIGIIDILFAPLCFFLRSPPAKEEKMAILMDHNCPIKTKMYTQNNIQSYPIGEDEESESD

Kp ([1]; average, read-out: VT, average): 3.69
K1, average ([1]; average): 0.81 (cc/min)/cc
k2, average ([1]; average): 0.26 min⁻¹
BPislet/BPexocrine ratio (VMAT2 [2]): 16
half-life [3, 10]: 7.23 h
half-life [3, 11]: > 6 h
kdefluorination, average ([3]; average): 2.67e-05 s⁻¹
kdefluorination [3, 13]: 2.67e-05 ± 1.2e-05 s⁻¹
Increase in half-life stability ([3]; vs non-deuterated analogue): six fold increase
Radiochemical purity of the formulated product (stability) [4]: > 98%
Bile tracer and metabolites ([5]; i.v. bolus): > 10 SUV
Pancreas uptake after 90 min ([5]; i.v. bolus, 90 min): 1.8 SUV
Pancreas average peak uptake ([5]; i.v. bolus, shortly after administration): 2.64 SUV
Spinal column vertebrae VOIs uptake ([5]; within the initial minutes, no further accumulation): 1.4 SUV
Structure (SMILES): COc1cc2c(cc1OCCF)CCN1C[C@@H](CC(C)C)[C@H](O)C[C@H]21 [[^18F]FE-DTBZ-d4, (2R,3R,11bR)-9-(2-fluoroethoxy)-3-isobutyl-10-methoxy-2,3,4,6,7,11b-hexahydro-1H-pyrido[2,1-a]isoquinolin-2-ol]
K1 ([1]; individual experiments): 0.65 (cc/min)/cc and 1.09 (cc/min)/cc and 1.13 (cc/min)/cc and 0.36 (cc/min)/cc
k2 ([1]; individual experiments): 0.32 min⁻¹ and 0.25 min⁻¹ and 0.37 min⁻¹ and 0.10 min⁻¹
VT (total distribution volume, K1/k2) ([1]; individual experiments): 2.05 cc/cc and 4.39 cc/cc and 3.06 cc/cc and 3.64 cc/cc
t1/2 (defluorination) ([3]; individual experiments): 7.312 h and 27.507 h and 3.292 h and 13.13 h
kdefluorination [3, 12]: 2.67e-05 s⁻¹ and 7e-06 s⁻¹ and 5.83e-05 s⁻¹ and 1.47e-05 s⁻¹

Kp ([1]; average, read-out: VT, average): 4.17
Kp ([1]; individual experiments, read-out: VT (total distribution volume, K1/k2)): 3.39
K1, average ([1]; average): 0.26 (cc/min)/cc
k2, average ([1]; average): 0.064 min⁻¹
k2 ([1]; individual experiments): 0.08 min⁻¹ and 0.07 min⁻¹ and 0.04 min⁻¹
VT (total distribution volume, K1/k2) ([1]; individual experiments): 4.47 cc/cc and 4.65 cc/cc
half-life [3, 10]: 1.06 h
half-life ([3]; individual experiments, read-out: t1/2 (defluorination)): 0.77 h
half-life [3, 11]: > 1 h
t1/2 (defluorination) ([3]; individual experiments): 1.46 h and 0.952 h
kdefluorination, average ([3]; average): 0.0002 s⁻¹
kdefluorination [3, 13]: 0.0002 ± 3.3e-05 s⁻¹
Structure (SMILES): COc1cc2c(cc1OCC[18F])CCN1CC(CC(C)C)C(O)CC21 (centres unmarked) [[^18F]FE-DTBZ]
K1 ([1]; individual experiments): 0.27 (cc/min)/cc and 0.30 (cc/min)/cc and 0.20 (cc/min)/cc
kdefluorination [3, 12]: 0.00025 s⁻¹ and 0.000132 s⁻¹ and 0.0002023 s⁻¹
Spinal column uptake at the end of the experiments [6]: 3.1 SUV
BPislet (VMAT2 [7]): 110.4 femtomoles per milligram protein per nanoMolar
BPislet/BPexocrine ratio (VMAT2 [8]; from previously described BP values): 11.2
BPexocrine (VMAT2 [8]; human exocrine homogenate, described previously): 9.8 femtomoles per milligram protein per nanoMolar

Structure (SMILES): [18FH] [[^18F]F^-, Fluorine-18 fluoride]
Plasma delay, average ([9]; cortical spinal bone model, average of 3 pigs): 25.67 s
Plasma delay ([9]; cortical spinal bone model, individual pigs): 25.6 s and 23.5 s and 27.9 s
K1, average [9, 14]: 0.57 (cc/min)/cc
VS, average [9, 14]: 27.53 cc/cc
VS/VT, average [9, 14]: 0.99
VT, average [9, 14]: 27.9 cc/cc
k2, average [9, 14]: 1.54 min⁻¹
k3, average [9, 14]: 0.42 min⁻¹
k4, average [9, 14]: 0.0058 min⁻¹
K1 [9, 15]: 0.71 (cc/min)/cc and 0.44 (cc/min)/cc and 0.56 (cc/min)/cc
VS (specific binding distribution volume) [9, 15]: 35.9 cc/cc and 19.8 cc/cc and 26.9 cc/cc
VS/VT [9, 15]: 0.99
VT (total distribution volume) [9, 15]: 36.4 cc/cc and 20.1 cc/cc and 27.2 cc/cc
k2 [9, 15]: 1.27 min⁻¹ and 1.78 min⁻¹ and 1.57 min⁻¹
k3 [9, 15]: 0.39 min⁻¹ and 0.5 min⁻¹ and 0.38 min⁻¹
k4 [9, 15]: 0.0061 min⁻¹ and 0.0062 min⁻¹ and 0.0051 min⁻¹
k3 [9, 16]: 0.42 ± 0.04 min⁻¹
k4 [9, 16]: 0.0058 ± 0.0004 min⁻¹
Signal coming from the nonspecific or free tracer ([9]; cortical spinal bone, model prediction): less than 1%
